In the NIST ThermoML archive (doi:10.1016/j.jct.2016.06.034):
Numbers after ± are expanded uncertainties.

Assay: osmotic coefficient (dimensionless); mn = molality of the nth substance listed, in mol/kg
Settings: 308.15 K, 84.5 kPa, Liquid, Knauer Osmomat K-7000

CCCCCCCCCCn1cc[n+](C)c1.[Br-] [1-decyl-3-methylimidazolium bromide] + O
Settings	osmotic coefficient
m1 = 0.01036	1.233 ± 0.009
m1 = 0.01532	1.16 ± 0.0062
m1 = 0.01539	1.154 ± 0.006
m1 = 0.02001	1.11 ± 0.0044
m1 = 0.02014	1.106 ± 0.0042
m1 = 0.02471	1.081 ± 0.0035
m1 = 0.02479	1.075 ± 0.0033
m1 = 0.03022	1.06 ± 0.0029
m1 = 0.03026	1.055 ± 0.0028
m1 = 0.03486	1.021 ± 0.0021
m1 = 0.0384	0.9873 ± 0.0021
m1 = 0.03983	0.9742 ± 0.0022
m1 = 0.04483	0.8983 ± 0.0041
m1 = 0.04981	0.8319 ± 0.0065
m1 = 0.05918	0.735 ± 0.01
m1 = 0.06429	0.687 ± 0.012
m1 = 0.06983	0.644 ± 0.014
m1 = 0.07967	0.579 ± 0.016
m1 = 0.08811	0.53 ± 0.018
m1 = 0.09976	0.48 ± 0.02
m1 = 0.1175	0.417 ± 0.023
